Reference: patent publication US12441726B2, “Compounds and uses thereof” (Foghorn Therapeutics Inc., priority 2020, dated 2025)
One block for each compound: values may come before it.

What was measured:
[1] = biological target: BRG-1 (Homo sapiens, UniProt P51532); experiment: ATPase catalytic activity assay (ADP-Glo), BRG-1; conditions: for Emax: 1 h, read-out: BRG1 Max % Inhibition, ADP-Glo, 30 nM BRG-1, 400 μM ATP
[2] = biological target: BRM (Homo sapiens, UniProt P51531); experiment: ATPase catalytic activity assay (ADP-Glo), BRM; conditions: 30 nM BRM, 400 μM ATP; for IC50: BRM ATPase: IC50 (uM)
Chain of BRM (P51531 whole entry): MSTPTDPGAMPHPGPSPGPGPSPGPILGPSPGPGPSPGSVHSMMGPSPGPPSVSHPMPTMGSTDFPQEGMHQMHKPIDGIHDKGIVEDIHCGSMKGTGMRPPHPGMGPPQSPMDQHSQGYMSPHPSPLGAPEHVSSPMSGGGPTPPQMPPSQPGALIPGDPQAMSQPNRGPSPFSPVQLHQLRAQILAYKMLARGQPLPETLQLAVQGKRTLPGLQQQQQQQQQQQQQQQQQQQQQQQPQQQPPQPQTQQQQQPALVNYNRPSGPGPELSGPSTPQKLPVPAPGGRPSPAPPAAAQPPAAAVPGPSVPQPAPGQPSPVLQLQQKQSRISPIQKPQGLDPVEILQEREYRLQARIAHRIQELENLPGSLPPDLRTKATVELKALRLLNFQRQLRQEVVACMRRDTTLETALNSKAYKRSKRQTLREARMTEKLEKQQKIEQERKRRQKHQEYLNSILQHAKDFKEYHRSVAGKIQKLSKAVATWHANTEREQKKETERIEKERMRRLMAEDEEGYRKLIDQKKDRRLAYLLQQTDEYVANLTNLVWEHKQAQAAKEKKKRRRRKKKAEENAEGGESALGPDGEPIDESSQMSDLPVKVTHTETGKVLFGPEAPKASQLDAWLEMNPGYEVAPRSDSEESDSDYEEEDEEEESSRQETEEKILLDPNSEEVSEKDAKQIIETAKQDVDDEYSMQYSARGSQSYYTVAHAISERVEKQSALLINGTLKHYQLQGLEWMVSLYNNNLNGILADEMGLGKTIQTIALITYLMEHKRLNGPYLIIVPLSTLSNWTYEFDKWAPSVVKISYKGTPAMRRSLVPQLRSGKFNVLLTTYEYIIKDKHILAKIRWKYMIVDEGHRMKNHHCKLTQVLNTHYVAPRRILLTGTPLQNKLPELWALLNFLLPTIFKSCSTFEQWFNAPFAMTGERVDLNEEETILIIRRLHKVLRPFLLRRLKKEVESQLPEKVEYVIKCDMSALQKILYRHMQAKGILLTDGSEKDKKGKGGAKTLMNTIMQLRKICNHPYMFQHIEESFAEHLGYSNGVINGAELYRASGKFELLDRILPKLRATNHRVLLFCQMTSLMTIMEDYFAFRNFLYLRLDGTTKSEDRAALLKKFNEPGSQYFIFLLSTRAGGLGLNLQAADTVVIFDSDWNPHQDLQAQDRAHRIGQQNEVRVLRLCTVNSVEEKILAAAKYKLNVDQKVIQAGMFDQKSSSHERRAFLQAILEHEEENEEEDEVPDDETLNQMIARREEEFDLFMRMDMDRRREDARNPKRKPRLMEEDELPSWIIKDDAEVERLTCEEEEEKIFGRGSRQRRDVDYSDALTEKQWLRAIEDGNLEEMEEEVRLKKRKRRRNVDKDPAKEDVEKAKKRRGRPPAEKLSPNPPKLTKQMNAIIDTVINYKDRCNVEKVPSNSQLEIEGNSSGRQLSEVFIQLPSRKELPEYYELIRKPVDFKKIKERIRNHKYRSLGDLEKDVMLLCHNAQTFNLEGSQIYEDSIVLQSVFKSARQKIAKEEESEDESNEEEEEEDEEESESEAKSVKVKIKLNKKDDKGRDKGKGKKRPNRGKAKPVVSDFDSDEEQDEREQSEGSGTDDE

Chain of BRG-1 (P51532 whole entry): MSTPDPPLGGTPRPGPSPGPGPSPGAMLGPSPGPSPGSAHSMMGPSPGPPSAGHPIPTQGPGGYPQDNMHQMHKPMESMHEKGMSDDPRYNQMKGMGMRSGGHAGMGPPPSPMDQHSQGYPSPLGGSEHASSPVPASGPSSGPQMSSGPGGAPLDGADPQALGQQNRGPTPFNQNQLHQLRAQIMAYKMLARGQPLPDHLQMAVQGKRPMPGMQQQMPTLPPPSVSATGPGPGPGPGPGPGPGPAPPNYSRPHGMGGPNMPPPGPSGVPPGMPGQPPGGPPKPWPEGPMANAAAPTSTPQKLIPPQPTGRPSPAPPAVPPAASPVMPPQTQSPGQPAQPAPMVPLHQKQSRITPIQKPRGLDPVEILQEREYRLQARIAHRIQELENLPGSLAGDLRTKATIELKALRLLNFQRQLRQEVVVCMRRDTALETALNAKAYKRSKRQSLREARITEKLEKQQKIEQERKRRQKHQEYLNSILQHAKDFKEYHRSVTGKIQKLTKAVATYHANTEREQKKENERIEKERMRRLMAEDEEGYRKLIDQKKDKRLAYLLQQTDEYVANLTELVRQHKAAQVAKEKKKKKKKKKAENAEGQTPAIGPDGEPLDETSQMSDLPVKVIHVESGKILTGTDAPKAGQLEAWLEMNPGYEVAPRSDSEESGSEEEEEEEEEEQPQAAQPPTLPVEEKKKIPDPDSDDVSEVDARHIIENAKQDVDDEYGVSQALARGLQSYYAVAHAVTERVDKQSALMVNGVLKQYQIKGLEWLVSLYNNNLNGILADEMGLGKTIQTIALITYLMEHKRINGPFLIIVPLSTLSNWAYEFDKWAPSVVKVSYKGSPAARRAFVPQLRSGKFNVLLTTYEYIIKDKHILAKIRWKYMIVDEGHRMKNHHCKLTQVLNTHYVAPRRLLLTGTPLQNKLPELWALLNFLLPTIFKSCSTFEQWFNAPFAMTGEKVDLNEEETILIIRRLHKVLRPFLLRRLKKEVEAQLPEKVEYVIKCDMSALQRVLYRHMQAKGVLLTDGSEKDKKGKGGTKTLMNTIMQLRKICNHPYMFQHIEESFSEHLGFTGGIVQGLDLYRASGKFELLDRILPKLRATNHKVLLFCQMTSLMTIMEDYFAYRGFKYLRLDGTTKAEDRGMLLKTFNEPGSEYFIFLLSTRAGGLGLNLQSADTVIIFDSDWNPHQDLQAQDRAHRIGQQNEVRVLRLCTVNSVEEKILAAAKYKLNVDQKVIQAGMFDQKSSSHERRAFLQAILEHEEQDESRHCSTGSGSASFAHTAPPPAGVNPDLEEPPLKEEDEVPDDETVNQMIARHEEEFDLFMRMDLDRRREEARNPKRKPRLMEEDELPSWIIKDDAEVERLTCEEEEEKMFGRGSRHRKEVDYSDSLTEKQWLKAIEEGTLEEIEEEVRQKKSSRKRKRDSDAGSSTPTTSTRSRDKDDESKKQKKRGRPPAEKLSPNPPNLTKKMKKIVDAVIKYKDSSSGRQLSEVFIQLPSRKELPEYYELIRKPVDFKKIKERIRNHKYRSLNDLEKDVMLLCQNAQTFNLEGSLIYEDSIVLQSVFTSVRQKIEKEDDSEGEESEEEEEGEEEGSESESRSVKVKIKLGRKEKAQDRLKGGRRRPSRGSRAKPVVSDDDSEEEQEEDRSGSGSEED

IC50 [1]: > 1000 nM
Emax [1]: 56%
BRM Max % Inhibition [2]: 90%
IC50 [2]: 0.1 to 0.5 µM
SMILES: C[C@@]1(C#N)COCc2ccc(C(=O)NCc3cc(C#Cc4ccccc4)ccn3)cc21 [Compound 1]

IC50 [1]: > 1000 nM
Emax [1]: 65%
BRM Max % Inhibition [2]: 96%
IC50 [2]: 0.1 to 0.5 µM
SMILES: COc1cccc(C#Cc2ccnc(CNC(=O)c3ccc4c(c3)[C@](C)(C#N)COC4)c2)c1 [Compound 2]

IC50 [1]: > 1000 nM
Emax [1]: 78%
BRM Max % Inhibition [2]: 99%
IC50 [2]: < 0.1 µM
SMILES: COC(=O)c1cccc(C#Cc2ccnc(CNC(=O)c3ccc4c(c3)[C@](C)(C#N)COC4)c2)c1 [Compound 3]

IC50 [1]: > 1000 nM
Emax [1]: 12%
BRM Max % Inhibition [2]: 64%
IC50 [2]: > 1 µM
SMILES: COC(=O)N1CCCC(C#Cc2ccnc(CNC(=O)c3ccc4c(c3)[C@](C)(C#N)COC4)c2)C1 (stereo partly drawn) [Compound 5]

IC50 [1]: > 1000 nM
Emax [1]: 58%
BRM Max % Inhibition [2]: 94%
IC50 [2]: 0.1 to 0.5 µM
SMILES: C[C@@]1(C#N)COCc2ccc(C(=O)NCc3cc(C#Cc4cccc(C(F)F)c4)ccn3)cc21 [Compound 17]

IC50 [1]: > 1000 nM
Emax [1]: 31%
BRM Max % Inhibition [2]: 78%
IC50 [2]: > 1 µM
SMILES: COC(=O)N1CCC(C#Cc2ccnc(CNC(=O)c3ccc4c(c3)[C@](C)(C#N)COC4)c2)CC1 [Compound 21]

IC50 [1]: > 1000 nM
Emax [1]: 31%
BRM Max % Inhibition [2]: 70%
IC50 [2]: > 1 µM
SMILES: COC(=O)N1CCC(C#Cc2ccnc(CNC(=O)c3ccc4c(c3)[C@](C)(C#N)COC4)c2)C1 (stereo partly drawn) [Compound 22]

IC50 [1]: > 1000 nM
Emax [1]: 35%
BRM Max % Inhibition [2]: 85%
IC50 [2]: 0.5 to 1 µM
SMILES: COC(=O)c1cccc(C#Cc2ccnc(CNC(=O)c3ccc4c(c3)[C@](C)(O)COC4)c2)c1 [Compound 23]

IC50 [1]: 100 to 500 nM
Emax [1]: 90%
BRM Max % Inhibition [2]: 100%
IC50 [2]: < 0.1 µM
SMILES: COC(=O)c1cccc(/C=C/c2ccnc(CNC(=O)c3ccc4c(c3)[C@](C)(C#N)COC4)c2)c1 [Compound 26]

IC50 [1]: 500 to 1000 nM
Emax [1]: 86%
BRM Max % Inhibition [2]: 98%
IC50 [2]: < 0.1 µM
SMILES: C[C@@]1(C#N)COCc2ccc(C(=O)NCc3cc(N4CCc5ccccc5C4)ccn3)cc21 [Compound 28]

IC50 [1]: > 1000 nM
Emax [1]: 35%
BRM Max % Inhibition [2]: 92%
IC50 [2]: 0.1 to 0.5 µM
SMILES: C[C@@]1(C#N)COCc2ccc(C(=O)NCc3cc(C4CN(c5ccccc5)C4)ccn3)cc21 [Compound 30]

IC50 [1]: > 1000 nM
Emax [1]: 73%
BRM Max % Inhibition [2]: 96%
IC50 [2]: 0.1 to 0.5 µM
SMILES: C[C@@]1(C#N)COCc2ccc(C(=O)NCc3cc(N4Cc5ccccc5C4)ccn3)cc21 [Compound 31]

IC50 [1]: > 1000 nM
Emax [1]: 55%
BRM Max % Inhibition [2]: 89%
IC50 [2]: > 1 µM
SMILES: C[C@@]1(C#N)COCc2ccc(C(=O)NCc3cc(N4CC(c5ccccc5)C4)ccn3)cc21 [Compound 32]

The next lines start with the compound.

SMILES: C[C@@]1(C#N)COCc2ccc(C(=O)NCc3cc(/C=C/c4ccccc4)ccn3)cc21 [Compound 4]
IC50 [1]: > 1000 nM
Emax [1]: 74%
BRM Max % Inhibition [2]: 97%
IC50 [2]: 0.1 to 0.5 µM

SMILES: C[C@@]1(C#N)COCc2ccc(C(=O)NCc3cc(OCc4ccccc4)ccn3)cc21 [Compound 6]
IC50 [1]: > 1000 nM
Emax [1]: 44%
BRM Max % Inhibition [2]: 95%
IC50 [2]: 0.1 to 0.5 µM

SMILES: C[C@@]1(C#N)COCc2ccc(C(=O)NCc3cc([C@H]4C[C@@H]4c4ccccc4)ccn3)cc21 [Compound 7]
IC50 [1]: > 1000 nM
Emax [1]: 12%
BRM Max % Inhibition [2]: 81%
IC50 [2]: > 1 µM

SMILES: C[C@@]1(C#N)COCc2ccc(C(=O)NCc3cc([C@@H]4C[C@H]4c4ccccc4)ccn3)cc21 [Compound 8]
IC50 [1]: > 1000 nM
Emax [1]: 9%
BRM Max % Inhibition [2]: 73%
IC50 [2]: > 1 µM

SMILES: C[C@@]1(C#N)COCc2ccc(C(=O)NCc3cc(/C(F)=C(\F)c4ccccc4)ccn3)cc21 [Compound 9]
IC50 [1]: > 1000 nM
Emax [1]: 56%
BRM Max % Inhibition [2]: 95%
IC50 [2]: 0.1 to 0.5 µM

SMILES: C[C@@]1(C#N)COCc2ccc(C(=O)NCc3cc(N4CC5(CN(c6ccccc6)C5)C4)ccn3)cc21 [Compound 10]
IC50 [1]: > 1000 nM
Emax [1]: 30%
BRM Max % Inhibition [2]: 71%
IC50 [2]: > 1 µM

SMILES: C[C@@]1(C#N)COCc2ccc(C(=O)NCc3cc(N4CCC5(C4)CN(c4ccccc4)C5)ccn3)cc21 [Compound 11]
IC50 [1]: > 1000 nM
Emax [1]: 26%
BRM Max % Inhibition [2]: 82%
IC50 [2]: > 1 µM

SMILES: C[C@@]1(C#N)COCc2ccc(C(=O)NCc3cc(N4CC5(CCN(c6ccccc6)C5)C4)ccn3)cc21 [Compound 12]
IC50 [1]: > 1000 nM
Emax [1]: 22%
BRM Max % Inhibition [2]: 79%
IC50 [2]: > 1 µM

SMILES: O=C(NCc1cc(C#Cc2ccccc2)ccn1)c1cccc(C2(C(F)F)COC2)c1 [Compound 13]
IC50 [1]: > 1000 nM
Emax [1]: 44%
BRM Max % Inhibition [2]: 84%
IC50 [2]: > 1 µM

SMILES: C[C@@]1(F)COCc2ccc(C(=O)NCc3cc(C#Cc4ccccc4)ccn3)cc21 [Compound 14]
IC50 [1]: > 1000 nM
Emax [1]: 64%
BRM Max % Inhibition [2]: 94%
IC50 [2]: 0.5 to 1 µM

SMILES: Cc1cnc(CNC(=O)c2ccc3c(c2)[C@](C)(C#N)COC3)cc1C#Cc1ccccc1 [Compound 15]
IC50 [1]: > 1000 nM
Emax [1]: 64%
BRM Max % Inhibition [2]: 94%
IC50 [2]: 0.5 to 1 µM

SMILES: C[C@@]1(C#N)COCc2ccc(C(=O)NCc3nccc(C#Cc4ccccc4)c3F)cc21 [Compound 16]
IC50 [1]: > 1000 nM
Emax [1]: 51%
BRM Max % Inhibition [2]: 94%
IC50 [2]: 0.1 to 0.5 µM

SMILES: C[C@@]1(C#N)COCc2ccc(C(=O)NCc3cc([C@H]4C[C@H](c5ccccc5)C4)ccn3)cc21 [Compound 18]
IC50 [1]: > 1000 nM
Emax [1]: 87%
BRM Max % Inhibition [2]: 93%
IC50 [2]: < 0.1 µM

SMILES: C[C@@]1(C#N)COCc2ccc(C(=O)NCc3cc([C@H]4C[C@@H](c5ccccc5)C4)ccn3)cc21 [Compound 19]
IC50 [1]: 500 to 1000 nM
Emax [1]: 89%
BRM Max % Inhibition [2]: 97%
IC50 [2]: 0.1 to 0.5 µM

SMILES: C[C@@]1(C#N)COCc2ccc(C(=O)NCc3cc(C#Cc4ccccc4)c(F)cn3)cc21 [Compound 20]
IC50 [1]: > 1000 nM
Emax [1]: 41%
BRM Max % Inhibition [2]: 83%
IC50 [2]: 0.5 to 1 µM

SMILES: COC(=O)c1cccc(C#Cc2ccnc(CNC(=O)c3ccc4c(c3)[C@](C)(C#N)CCO4)c2)c1 [Compound 24]
IC50 [1]: > 1000 nM
Emax [1]: 65%
BRM Max % Inhibition [2]: 94%
IC50 [2]: 0.1 to 0.5 µM

SMILES: C[C@@]1(C#N)COCc2ccc(C(=O)NCc3cc(CCc4ccccc4)ccn3)cc21 [Compound 25]
IC50 [1]: > 1000 nM
Emax [1]: 68%
BRM Max % Inhibition [2]: 94%
IC50 [2]: 0.1 to 0.5 µM

SMILES: C[C@@]1(C#N)COCc2ccc(C(=O)NCc3cc(/C(F)=C/c4ccccc4)ccn3)cc21 [Compound 27]
IC50 [1]: > 1000 nM
Emax [1]: 62%
BRM Max % Inhibition [2]: 97%
IC50 [2]: 0.1 to 0.5 µM

SMILES: C[C@@]1(C#N)COCc2ccc(C(=O)NCc3cc(/C=C(\F)c4ccccc4)ccn3)cc21 [Compound 29]
IC50 [1]: > 1000 nM
Emax [1]: 69%
BRM Max % Inhibition [2]: 98%
IC50 [2]: 0.1 to 0.5 µM

SMILES: C[C@@]1(C#N)COCc2ccc(C(=O)NCc3nccc(/C=C/c4ccccc4)c3F)cc21 [Compound 33]
IC50 [1]: > 1000 nM
Emax [1]: 78%
BRM Max % Inhibition [2]: 98%
IC50 [2]: 0.1 to 0.5 µM
